In publication PMC8876244, “Effective Synthesis and Antifouling Activity of Dolastatin 16 Derivatives” (Marine Drugs, 2022):
In brackets after ≈: the same amount, converted by molar mass. Like-named read-outs stand apart in the source and are kept apart here. Starred links: 1 amine or outer side, 2 acyl side, 3 side chain; linkers in the order of their positions; H or OH if unused. Non-standard residues stand in square brackets, D forms with d. Residues, ends and D or L forms follow the SMILES beside them. *: point of attachment. X3 = CC(=O)Oc1ccc(C[C@@H](C)[C@H](N[*:1])C(=O)[*:2])cc1; X4 = CC(C)[C@@H](N[*:1])[C@@H](C)C(=O)[*:2]; X1 = CC(Cc1ccccc1)C(N[*:1])C(=O)[*:2]; X2 = CC(C)C(N[*:1])C(C)C(=O)[*:2]; X5 = C[C@H](OCc1ccccc1)C(=O)*; dNMeV = CN[C@@H](C(=O)O)C(C)C; dHiv = CC(C)[C@@H](O)C(=O)O; Hiv = CC(C)[C@H](O)C(=O)O; Lac = C[C@H](O)C(=O)O; OBn = c1ccc(CO*)cc1

Columns and labels:
[1] = system: cypris larvae of the barnacle Amphibalanus amphitrite; assay: Antifouling assay: inhibition of settlement of cypris larvae, 48 h exposure; assay type: in vivo; settings: for EC50: Amphibalanus amphitrite, 48 h
Experimental: The antifouling activities of synthetic samples were evaluated as EC50 values against the cypris larvae of A. amphitrite by exposure of each compound for 48 h (Table 1, Figure 2). […] We next investigated the biological activity of the fragments.
(§1) Antifouling assay against larvae of the barnacle Amphibalanus amphitrite was conducted according to the previous literature. The adult barnacles, A. amphitrite, obtained from oyster farms in Lake Hamana and a pier of Shimizu bay, Shizuoka, were kept in an aquarium at 20 °C and were fed on Artemia salina nauplii. Broods were released as I–II stage nauplii upon immersion in seawater after drying overnight. The nauplii (1.0~3.0 indiv./mL) thus obtained were cultured in 2.0 L filtered (0.2 μm) natural seawater (diluted by DW: salinity 28) containing penicillin G (20 μg/mL) and streptomycin sulfate (30 μg/mL) at 25 °C and were fed on the diatom Chaetoceros gracillis at concentrations of 40 × 10^4 cells/mL. Larvae reached the cyprid stage in 5 days. The cyprids were collected, then stored at 4 °C until use (0-day-old).
(§2) The test compounds were dissolved in ethanol and aliquots of the solution (20 μL) were transferred to wells of a 24-well polystyrene culture plates and then air-dried for 3 h at room temperature and CuSO4 was used as positive compound. Four wells were used for each concentration (0.03, 0.1, 0.3, 1.0, 3.0, 10.0 μg/mL). To each well were added filtered ([…]) natural seawater (2.0 mL, salinity 28) and six 2-day-old cyprids. The plates were kept in the dark at 25 °C for 48 h. […] Three or four trials were carried out for each concentration. Antifouling activity (EC50) indicates the concentration reducing the larval settlement to 50% of the control (non-treatment) by Probit analysis. Toxicity of compounds were expressed as LC50 value, which indicates the concentration showing 50% mortality estimated by Probit analysis.

[2] = Antifouling assay: toxicity (mortality) to cypris larvae, 48 h exposure; settings: Amphibalanus amphitrite (barnacle, cypris larvae), in vivo, 50% mortality of cyprids, highest concentration 10.0 μg/mL, read-out: LC50 (50% lethal concentration)
Experimental: as §1, §2

[3] = system: cypris larvae of the barnacle Amphibalanus amphitrite; settings: previous compounds and positive control, cited from earlier work; for EC50: read-out: EC50 (μM), antifouling activity
[4] = system: larval settlement and metamorphosis of the barnacle Amphibalanus amphitrite; set-up: method as in PMID 20658384; settings: cited from earlier work
[5] = system: barnacle Amphibalanus amphitrite; set-up: method as in PMID 20658384; settings: cited from earlier work
[6] = system: human cancer cell lines such as NCI-H460, KM20L2 and SF-295; settings: cited from earlier work
[7] = system: cypris larvae of the barnacle Amphibalanus amphitrite; settings: previous compounds and positive control; cited from earlier work
[8] = larval settlement reduced to 50% of control, Probit analysis, read-out: EC50 (50% effective concentration), antifouling activity
[9] = larval settlement, read-out: EC50 (μM), antifouling activity

SMILES	EC50 [1, 8] [µg/mL]	EC50 [1, 9] [µM]	LC50 [2] [µg/mL]	EC50 (50% effective concentration), antifouling activity [3] [µg/mL]	EC50 [3] [µM]	LC50 (50% lethal concentration) [7] [µg/mL]	further results
CC(C)[C@@H](NC(=O)[C@@H]1CCCN1C(=O)[C@@H](NC(=O)OC(C)(C)C)[C@H](C)Cc1ccccc1)[C@@H](C)C(=O)OCc1ccccc1 [Boc-3]	< 1	1.3	> 10				
CC(C)C1NC(=O)[C@@H]2CCCN2C(=O)C(C(C)Cc2ccccc2)NC(=O)[C@@H]2CCCN2C(=O)[C@@H](C(C)C)N(C)C(=O)[C@@H](C(C)C)OC(=O)[C@@H]2CCCN2C(=O)[C@H](C)OC(=O)C1C (some centres unmarked) [Compound 1, Dolastatin 16] (cyclo([Lac]P[dHiv][dNMeV]P[X1]P[X2]))				<0.03	< 0.03	>10	EC50 (50% effective concentration) [4]: 0.003 µg/mL (≈ 0.00341 µM); LC50 (50% lethal concentration) [5]: 20 µg/mL (≈ 22.8 µM); Growth inhibition of human cancer cell lines ([6]; 1 isolated from the natural sample): strong growth inhibitions; Anticancer activity of synthetic sample versus isolated compound ([6]; synthetic 1): much less potent than the isolated compound
CC(C)[C@H](OC(=O)[C@@H]1CCCN1C(=O)[C@H](C)OCc1ccccc1)C(=O)N(C)[C@@H](C(=O)N1CCC[C@H]1C(=O)O)C(C)C [Compound 2] (X5-P[Hiv][dNMeV]P-OH)				>10	> 17	>10	
CC(C)[C@@H](NC(=O)[C@@H]1CCCN1C(=O)[C@@H](N)[C@H](C)Cc1ccccc1)[C@@H](C)C(=O)OCc1ccccc1 [Compound 3]				1.17 (≈ 2.3 µM)	1.92	>10	
CC(C)[C@@H](NC(=O)[C@@H]1CCCN1C(=O)[C@@H](NC(=O)OC(C)(C)C)[C@H](C)Cc1ccc(O)cc1)[C@@H](C)C(=O)OCc1ccccc1 [Compound 21, Boc-Dpv(OH)-Pro-Dml-OBn]	< 1	0.96	> 10				
CC(C)[C@@H](NC(=O)[C@@H]1CCCN1C(=O)[C@@H](NC(=O)OC(C)(C)C)[C@H](C)Cc1ccc(OCc2ccccc2)cc1)[C@@H](C)C(=O)OCc1ccccc1 [Compound 22, Boc-Dpv(OBn)-Pro-Dml-OBn]	4.62	6.47	> 10				
CC(=O)Oc1ccc(C[C@@H](C)[C@@H]2NC(=O)[C@@H]3CCCN3C(=O)[C@@H](C(C)C)N(C)C(=O)[C@H](C(C)C)OC(=O)[C@@H]3CCCN3C(=O)[C@H](C)OC(=O)[C@H](C)[C@@H](C(C)C)NC(=O)[C@@H]3CCCN3C2=O)cc1 [Compound 24, Dolastatin 16 Acetate] (cyclo([Hiv][dNMeV]P[X3]P[X4][Lac]P))							EC50 ([1]; read-out: EC50 (50% effective concentration), antifouling activity): 1.74 µg/mL; EC50 ([1]; read-out: EC50 (μM), antifouling activity): 1.86 µM; Antifouling activity (in words) ([1]; settlement of cypris larvae): much less potent than dolastatin 16; LC50 at 48 h [2]: > 10 µg/mL
CC(C)[C@H](OC(=O)[C@@H]1CCCN1C(=O)[C@H](C)OCc1ccccc1)C(=O)N(C)[C@@H](C(=O)N1CCC[C@H]1C(=O)OCc1ccccc1)C(C)C [Compound 25, BnO-Lac-Pro-O-Hiv-D-MeVal-Pro-OBn] (X5-P[Hiv][dNMeV]P-OBn)	< 1	1.32	> 10				
CC(C)[C@H](OC(=O)[C@@H]1CCCN1C(=O)OC(C)(C)C)C(=O)N(C)[C@@H](C(=O)N1CCC[C@H]1COCc1ccccc1)C(C)C [Compound 29, Boc-Pro-O-Hiv-D-MeVal-Pro-CH2OBn]	3.27	6.52	> 10				
O=S(=O)([O-])[O-].[Cu+2] [CuSO4, reference compound]				0.10	0.63	>10	
